Tested on: 317291-083-R-J1-PDC complex spheroids, viability
Experiment: Anticancer human tumor 317291-083-R-J1-PDC patient-derived soft tissue sarcoma cell line growth inhibition [GQUAD]
Conditions: for IC50: curve of first compound; for viability, T/C: stronger effect = lower value; active means viability on the fitted dose curve at most 10% of control; inactive means the rest
Text: DNA G-quadruplex Stabilizer Agents in Combinations in Complex Spheroids
A high-throughput screen of multi-cell type tumor spheroids was designed to identify active combinations of DNA G-quadruplex stabilizer agents and targeted small molecules. Complex spheroids include a stromal component modeled by human endothelial cells (HUVEC) and fibroblasts modeled by human mesenchymal stem cells (MSCs). The concentration ranges selected for each drug and investigational agent were based upon clinically achievable concentrations if the clinical Cmax of the agent was known.
Compounds. The drugs and investigational agents: pidnarulex (CX-5461; NSC782164), APTO-253 (NSC789042), BRACO-19 (NSC847499), peposertib (NSC802822), ceralasertib (NSC780249), elimusertib (NSC800525), camonsertib (NSC841442), AZD-1390 (NSC803789), olaparib (NSC753686), talazoparib (NSC767125), ART-558 (NSC835418), sotorasib (NSC818433), MRTX-1133 (NSC836407), SN-38 (NSC673596), topotecan (NSC609699), etoposide (NSC141540), doxorubicin (NSC123127), gemcitabine (NSC613327), 5-fluorouracil (NSC19893), paclitaxel (NSC125973), vemurafenib (NSC761431), panobinostat (NSC761190), R-306465 (JNJ-16241199; NSC773264), adavosertib (NSC754352), TP-3654 (NSC805149), carboplatin (NSC241240), KSQ-4279 (NSC840948), and staurosporine (NSC755774) were obtained from the National Cancer Institute (NCI) Developmental Therapeutics Program Chemical Repository (34). The FDA-approved anticancer drug set is available from the NCI Developmental Therapeutics Program. […] The stock solutions were prepared in dimethyl sulfoxide (DMSO, Sigma-Aldrich, St. Louis, MO, cat. D2650) at 800-fold the tested concentration and stored at -70 degrees C prior to their use. All drugs and investigational agents were tested over a range starting from a high concentration at or near the clinical Cmax and decreasing in half-log increments. If the clinical Cmax for an agent had not been determined, the highest concentration tested was 10 microM.
2.3 Cell Culture. All cells were maintained in an incubator at 37 degrees C and 5% CO2 with 95% humidity. The PDC lines were cultured according to standard operating procedures established by the NCI PDMR. All PDCs were thawed and cultured in Matrigel-coated flasks prepared with a working solution of 1X Ham's F-12 nutrient mix, without supplementation (Invitrogen, cat. 11765054), 100 U/mL penicillin-streptomycin (Invitrogen, cat. 15140122), and 2.5% Matrigel (Corning Inc., cat. 354248) for the first three passages. The 857933-349-R-J2-PDC line was cultured in 6C/Colon 1B media, which includes advanced DMEM/F-12 (Thermo Fisher Scientific, cat. 12634028), 10 mM HEPES (Thermo Fisher Scientific, cat. 15630080), 1X GlutaMAX supplement (Thermo Fisher Scientific, cat. 35050061), 0.1 mg/mL primocin (InvivoGen, cat. ant-pm-2), 10% defined fetal bovine serum, heat inactivated (HyClone Laboratories Inc., cat. SH30070.03HI), 50% L-WRN conditioned media (ATCC, cat. CRL-3276), 1.25 mM N-Acetyl-L-cysteine (Sigma-Aldrich, cat. A9165), 10 mM nicotinamide (Sigma-Aldrich, cat. N0636), 1X B-27 supplement (Thermo Fisher Scientific, cat. 17504044), 1X N-2 supplement (Thermo Fisher Scientific, cat. 17502048), 10 microM Y-27632 dihydrochloride (Tocris Bioscience, cat. 1254), and 50 ng/mL human EGF recombinant protein (Thermo Fisher Scientific, cat. PHG0311). The 485176-168-R4-J1-PDC line was cultured in Panc media, which includes all 6C/Colon 1B media components plus 100 ng/mL human FGF-10 (Thermo Fisher Scientific, cat. 100-26), 500 nM SB-431542 (Selleckchem, cat. S1067), and gastrin (Tocris, cat. 3006).
[…]

[1] = second compound 0.0316 µM, first compound 0.0316 µM
[2] = second compound 0.0316 µM, first compound 0.1 µM
[3] = second compound 0.0316 µM, first compound 0.316 µM
[4] = second compound 0.0316 µM, first compound 1 µM
[5] = second compound 0.0316 µM, first compound 3.16 µM
[6] = second compound 0.0316 µM, first compound 10 µM
[7] = second compound 0.1 µM, first compound 0.0316 µM
[8] = second compound 0.1 µM, first compound 0.1 µM
[9] = second compound 0.1 µM, first compound 0.316 µM
[10] = second compound 0.1 µM, first compound 1 µM
[11] = second compound 0.1 µM, first compound 3.16 µM
[12] = second compound 0.1 µM, first compound 10 µM
[13] = second compound 0.316 µM, first compound 0.0316 µM
[14] = second compound 0.316 µM, first compound 0.1 µM
[15] = second compound 0.316 µM, first compound 0.316 µM
[16] = second compound 0.316 µM, first compound 1 µM
[17] = second compound 0.316 µM, first compound 3.16 µM
[18] = second compound 0.316 µM, first compound 10 µM
[19] = second compound 1 µM, first compound 0.0316 µM
[20] = second compound 1 µM, first compound 0.1 µM
[21] = second compound 1 µM, first compound 0.316 µM
[22] = second compound 1 µM, first compound 1 µM
[23] = second compound 1 µM, first compound 3.16 µM
[24] = second compound 1 µM, first compound 10 µM
[25] = second compound 3.16 µM, first compound 0.0316 µM
[26] = second compound 3.16 µM, first compound 0.1 µM
[27] = second compound 3.16 µM, first compound 0.316 µM
[28] = second compound 3.16 µM, first compound 1 µM
[29] = second compound 3.16 µM, first compound 3.16 µM
[30] = second compound 3.16 µM, first compound 10 µM
[31] = second compound 10 µM, first compound 0.0316 µM
[32] = second compound 10 µM, first compound 0.1 µM
[33] = second compound 10 µM, first compound 0.316 µM
[34] = second compound 10 µM, first compound 1 µM
[35] = second compound 10 µM, first compound 3.16 µM
[36] = second compound 10 µM, first compound 10 µM
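Further: spheroids exposed to compounds for one week before readout.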
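Wherever viability, T/C is given: percent viability relative to DMSO vehicle wells taken as 100%.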

COc1ccc([C@@H](O)c2cc(-c3ncnc4cc(N5CCOCC5)ccc34)c(F)cc2Cl)nn1 + CN(C)c1ccc(Nc2c3ccc(NC(=O)CCN4CCCC4)cc3nc3cc(NC(=O)CCN4CCCC4)ccc23)cc1
0.114 µM: IC50 (second compound 1 µM)
< 0.0316 µM: IC50 (second compound 3.16 µM) | IC50 (second compound 10 µM)
5.63 µM: IC50 (second compound 0.0316 µM)
inactive: viability, T/C [1] 111% | viability, T/C [2] 108% | viability, T/C [3] 94% | viability, T/C [4] 89.4% | viability, T/C [5] 67.4% | viability, T/C [6] 33.1% | viability, T/C [7] 104% | viability, T/C [8] 97.5% | viability, T/C [9] 104% | viability, T/C [10] 82% | viability, T/C [11] 57% | viability, T/C [12] 31% | viability, T/C [13] 85.2% | viability, T/C [14] 76.3% | viability, T/C [15] 71.6% | viability, T/C [16] 61% | viability, T/C [17] 43.5% | viability, T/C [18] 21.9% | viability, T/C [19] 57.5% | viability, T/C [20] 42.6% | viability, T/C [21] 47.9% | viability, T/C [22] 42.5% | viability, T/C [23] 28.8% | viability, T/C [24] 12.8% | viability, T/C [25] 22.4% | viability, T/C [26] 24.1% | viability, T/C [27] 32.2% | viability, T/C [28] 15.5% | viability, T/C [29] 8.93% | viability, T/C [31] 12.8% | viability, T/C [32] 15%
4.16 µM: IC50 (second compound 0.1 µM)
active: viability, T/C [30] 6.58% | viability, T/C [33] 3.27% | viability, T/C [34] 5.49% | viability, T/C [35] 11.5% | viability, T/C [36] 1.01%
2.04 µM: IC50 (second compound 0.316 µM)

O=C(c1cc(Cc2n[nH]c(=O)c3ccccc23)ccc1F)N1CCN(C(=O)C2CC2)CC1 + CN(C)c1ccc(Nc2c3ccc(NC(=O)CCN4CCCC4)cc3nc3cc(NC(=O)CCN4CCCC4)ccc23)cc1
inactive: viability, T/C [1] 107% | viability, T/C [2] 88.7% | viability, T/C [3] 93.2% | viability, T/C [4] 92.8% | viability, T/C [5] 84.9% | viability, T/C [6] 44.1% | viability, T/C [7] 111% | viability, T/C [8] 93.4% | viability, T/C [9] 101% | viability, T/C [10] 96.7% | viability, T/C [11] 76.3% | viability, T/C [12] 45.8% | viability, T/C [13] 84.4% | viability, T/C [14] 83.3% | viability, T/C [15] 83.8% | viability, T/C [16] 67.6% | viability, T/C [17] 73.5% | viability, T/C [18] 48% | viability, T/C [19] 55% | viability, T/C [20] 36.5% | viability, T/C [21] 44.2% | viability, T/C [22] 48.1% | viability, T/C [23] 52.3% | viability, T/C [24] 45.8% | viability, T/C [25] 34.7% | viability, T/C [26] 27.9% | viability, T/C [27] 22.8% | viability, T/C [28] 21.4% | viability, T/C [29] 16.6% | viability, T/C [30] 15.9% | viability, T/C [31] 5% | viability, T/C [32] 12.6% | viability, T/C [33] 14.9% | viability, T/C [34] 11.7% | viability, T/C [35] 31.9% | viability, T/C [36] 6.71%
< 0.0316 µM: IC50 (second compound 1 µM) | IC50 (second compound 3.16 µM) | IC50 (second compound 10 µM)
8.52 µM: IC50 (second compound 0.0316 µM)
8.53 µM: IC50 (second compound 0.1 µM)
9.79 µM: IC50 (second compound 0.316 µM)
